According to publication PMC8989888, “Development of optimized drug-like small molecule inhibitors of the SARS-CoV-2 3CL protease for treatment of COVID-19” (Nature Communications, 2022):
Several values for one entry are separate records, joined by “and”; a condition that tells them apart may be missing. Equal entries are not always repeated.

tested on: SARS-CoV-2; experiment: microbe, parasite or virus in culture; format: cell-based

| Structure (SMILES) | inhibition of SARS-CoV-2 (Figure S17A dose-response, replicate values) |
| --- | --- |
| CC(C)C[C@H](NC(=O)OCc1cccc(Cl)c1)C(=O)N[C@@H](C[C@@H]1CCNC1=O)C(O)S(=O)(=O)O (stereo partly shown) [EB46] | 0 (10×) and 100 (6×) and 37.5 (2×) and 50 and 12.5 (2×) |
| O=C(N[C@@H](CC1CCCCC1)C(=O)N[C@@H](C[C@@H]1CCNC1=O)C(O)S(=O)(=O)O)OCc1cccc(Cl)c1 (stereo partly shown) [EB48] | 0 (11×) and 68.75 and 75 and 93.75 and 25 (3×) and 50 and 37.5 and 12.5 (2×) |
| CC(C)C[C@H](NC(=O)OCc1ccccc1Cl)C(=O)N[C@@H](C[C@@H]1CCNC1=O)C(O)S(=O)(=O)O (stereo partly shown) [EB54] | 0 (6×) and 100 (6×) and 50 (3×) and 12.5 (4×) and 25 (2×) |
| CC(C)C[C@H](NC(=O)OCc1cccc2ccccc12)C(=O)N[C@@H](C[C@@H]1CCNC1=O)C(O)S(=O)(=O)O (stereo partly shown) [EB55] | 0 (10×) and 100 (4×) and 93.75 (2×) and 12.5 (5×) |
| CC(C)C[C@H](NC(=O)OCc1ccc2ccccc2c1)C(=O)N[C@@H](C[C@@H]1CCNC1=O)C(O)S(=O)(=O)O (stereo partly shown) [EB56] | 0 (5×) and 12.5 (8×) and 93.75 (3×) and 87.5 (3×) and 50 and 25 |
| CC(C)CC(NC(=O)OCc1ccccc1)C(=O)NC(CC1CCNC1=O)C(O)S(=O)(=O)O (stereo not shown) [GC376, reference compound] | 0 (14×) and 87.5 and 93.75 and 100 and 37.5 and 62.5 and 68.75 and 12.5 |
| O=C(N[C@@H](CC1CCCCC1)C(=O)N[C@@H](C[C@@H]1CCNC1=O)C(O)S(=O)(=O)O)OCc1ccccc1 (stereo partly shown) [SL-4-241] | 0 (14×) and 100 (2×) and 81.25 and 25 (2×) and 12.5 (2×) |
